According to US9669005B2, “Use of naringenin in preparing drugs for preventing and/or treatment abdominal aortic aneurysm” (priority 2013, dated 2017):

Assays:
[1] = tested on: abdominal aortic aneurysms in C57BL/6J mice with CaPO4 daubed infrarenal arteries; experiment: Abdominal aortic aneurysm model induced by CaPO4 daubed infrarenal aortas, naringenin or doxycycline gavage; type: in vivo; details: CaPO4 daubed C57BL/6 mice; daily gavage 7 days; naringenin 50 mg/kg, doxycycline 100 mg/kg; average ± SD; CaPO4 + water 1.40±0.19, NaCl 0.77±0.06
Procedure: 12-week old of male C57BL/6 mice were anesthetized via intraperitoneal injection of 0.1% pentobarbital sodium (injection according to body weight, […]). Infrarenal abdominal aortas were separated, and the separated infrarenal abdominal aortas were packaged by gauze (1 cm in width×3 cm in length) soaked in 0.5 M CaCl2 solution. After 10 minutes, the gauze was removed, gauze soaked in PBS was instead used to package the blood vessel for 5 min. CaCl2+and PO4^−3 in PBS can form CaPO4 crystal, that is, corresponding to daubing CaPO4 to the blood vessel. After packaging the blood vessel with gauze soaked in NaCl for 10 minutes, gauze soaked in PBS is instead used for 5 min, serving as NaCl daubed control group.
(§1) Gavage was started at the first day after surgery, and water, naringenin (50 mg/kg) (Sigma-Aldrich, St. Louis, Mo.) or doxycycline (100 mg/kg) (Sigma-Aldrich, St. Louis, Mo.) gavage were given on mice daily. Materials were removed from the mice 7 days after gavage. Mice were weighed, and blood was drawn from inner canthus by capillary, after centrifuged for 10 minutes at 6000 rotations, the supernatant was removed and blood fat was measured (kit is purchased from BIOSINO company). Then perfusion and washing were performed on mice using PBS. Blood vessels were separated, and four blood vessels were randomly chosen for each group for photographing. The results were shown in FIG. 1, wherein, NaCl was the group of daubing NaCl (n=11), CaPO4 was the group of daubing CaPO4 plus water feed (n=12), CaPO4+NGN was the group of daubing CaPO4 μlus naringenin gavage (n=11), and CaPO4+Dox was the group of daubing CaPO4 μlus doxycycline gavage (n=11).
The blood vessels were sliced, and the change of the diameters in infrarenal abdominal aortas of mice were identified by H.E. staining. […] The data in FIG. 2A were an average value±standard deviation.
The fracture degree of elastic lamina is also an index showing the severity of abdominal aortic aneurysms. The degradation of elastic lamina is divided into four grades. The first grade means that the degradation of elastic lamina is less than 25%, with the second grade of 25%-50%, the third grade of 50%-75%, and the fourth grade means the fracture is more than 75%. We used Gomori staining to identify the fracture situation of elastic lamina of infrarenal abdominal aortas of mice. […] The data in FIG. 2B were an average value±standard deviation.

[2] = Body weight and blood fat of CaPO4 treated C57BL/6J mice; type: in vivo; details: CaPO4 treated C57BL/6J mice; gavage 7 days; naringenin 50 mg/kg, doxycycline 100 mg/kg
Procedure: as §1

SMILES: C[C@H]1c2cccc(O)c2C(=O)C2=C(O)[C@]3(O)C(=O)C(C(N)=O)=C(O)[C@@H](N(C)C)[C@@H]3[C@@H](O)[C@@H]21 [doxycycline, reference compound]
- diameters of infrarenal abdominal aortas (H.E. staining) [1]: 0.99±0.18 mm
- Body weight [2]: 21.0 ± 1.89 g
- Cholesterol [2]: 3.49 ± 0.64 mmol
- Triglyceride [2]: 1.07 ± 0.32 mmol
